Laboratory results: article PMC10967822, “Antimicrobial Indole-3-Carboxamido-Polyamine Conjugates Target Bacterial Membranes and Are Antibiotic Potentiators” (Biomolecules, 2024)
Values after ≈ are worked out from the molar mass of the structure shown. Like-named read-outs stand apart in the source and are kept apart here. One block for each compound: values may come before it.

Assays:
S. aureus ATCC 25923 = experiment: MIC, broth dilution, S. aureus; assay type: cell-based, Staphylococcus aureus; conditions: Staphylococcus aureus, ATCC25923; S. aureus ATCC 25923, 18 h; read-out: MIC Sa
MRSA ATCC 43300 = experiment: MIC, broth microdilution (CO-ADD), MRSA; assay type: cell-based, methicillin-resistant S. aureus; conditions: Staphylococcus aureus, read-out: MIC MRSA
P. aeruginosa ATCC 27853 [1] = experiment: MIC, broth dilution, P. aeruginosa; assay type: cell-based, Pseudomonas aeruginosa; conditions: P. aeruginosa ATCC 27853, 18 h, read-out: MIC Pa
E. coli ATCC 25922 [2] = experiment: MIC, broth dilution, E. coli; assay type: cell-based, Escherichia coli; conditions: E. coli ATCC 25922, 18 h
A. baumannii ATCC 19606 = experiment: MIC, broth microdilution (CO-ADD), A. baumannii; assay type: cell-based, Acinetobacter baumannii
C. albicans ATCC 90028 = experiment: Antifungal MIC (CO-ADD), C. albicans; assay type: cell-based; conditions: Candida albicans, ATCC90028, top dose 32 µg/mL
Method: (§1) For the antifungal assay, fungi strains were cultured for 3 days on YPD agar at 30 °C. A yeast suspension of 1 × 10^6 to 5 × 10^6 CFU/mL was prepared from five colonies. These stock suspensions were diluted with a yeast nitrogen base (YNB) (Becton Dickinson, 233520, New South Wales, Australia) broth to a final concentration of 2.5 × 10^3 CFU/mL. […] The plates were covered and incubated at 35 °C for 36 h without shaking. C. albicans MICs were determined by measuring the absorbance at OD530. For C. neoformans, resazurin was added at a 0.006% final concentration to each well and incubated for a further 3 h before the MICs were determined by measuring the absorbance at OD570–600. […] Fluconazole was used as a positive fungal inhibitor standard for C. albicans and C. neoformans. […] The quality control (QC) of the assays was determined by the antimicrobial controls and the Z′-factor (using positive and negative controls).

P. aeruginosa ATCC 27853 [3] = experiment: Doxycycline potentiation against P. aeruginosa; assay type: cell-based, Pseudomonas aeruginosa; conditions: doxycycline at 2 µg/mL (4.5 µM); for Dox/Pa fold-change (intrinsic MIC / combination MIC): P. aeruginosa ATCC 27853; for Dox/Pa: concentration required to restore doxycycline activity (combination MIC): P. aeruginosa ATCC 27853, mean n = 3
From the text: (§2) These measurements were independently repeated in triplicate.

E. coli ATCC 25922 [4] = experiment: Erythromycin potentiation against E. coli; assay type: cell-based, Escherichia coli; conditions: erythromycin at 2 µg/mL (2.7 µM); for Erythro/Ec fold-change (intrinsic MIC / combination MIC): E. coli; for Erythro/Ec: concentration required to restore erythromycin activity (combination MIC): mean n = 3
From the text: as §2

[5] = Cytotoxicity assay (resazurin); assay type: cell-based; conditions: human, HEK293 cells, mean n = 2
human red blood cells = experiment: Hemolytic assay; assay type: cell-based; conditions: 10% hemolytic activity, mean n = 2
Method: Human whole blood was washed three times with three volumes of 0.9% NaCl and then resuspended in the same solution to a concentration of 0.5 × 10^8 cells/mL, as determined by the manual cell count in a Neubauer hemocytometer. The washed cells were then added to the 384-well compound-containing plates for a final volume of 50 μL. After a 10 min shake on a plate shaker, the plates were then incubated for 1 h at 37 °C. After incubation, the plates were centrifuged at 1000× g for 10 min to pellet cells and debris; 25 μL of the supernatant was then transferred to a polystyrene 384-well assay plate. Hemolysis was determined by measuring the supernatant absorbance at […] (OD405). The absorbance was measured using a Tecan M1000 Pro monochromator plate reader. HC10 and HC50 (concentrations at 10% and 50% hemolysis, respectively) were calculated by a curve fitting the inhibition values vs. log (concentration) using a sigmoidal dose–response function with variable fitting values for the top, bottom, and slope.

[6] = tested on: K. pneumoniae ATCC 700603; experiment: MIC, broth microdilution (CO-ADD), K. pneumoniae; conditions: top dose 32 µg/mL
[7] = tested on: C. neoformans ATCC 208821; experiment: Antifungal MIC (CO-ADD), C. neoformans; assay type: cell-based; conditions: Cryptococcus neoformans, ATCC208821, top dose 32 µg/mL
Method: as §1

[8] = MRSA ATCC 43300, top dose 32 µg/mL
[9] = Pseudomonas aeruginosa, ATCC27853
[10] = Acinetobacter baumannii, ATCC19606, top dose 32 µg/mL

Compound: OC(Cn1cncn1)(Cn1cncn1)c1ccc(F)cc1F [Fluconazole, reference compound]
- MIC (C. albicans ATCC 90028): 0.4 µM (≈ 0.123 µg/mL)
- MIC [7]: 26 µM (≈ 7.96 µg/mL)

Compound: [H]/N=C(/N)N[C@H]1[C@H](O)[C@@H](O)[C@H](O[C@@H]2O[C@@H](C)[C@](O)(C=O)[C@H]2O[C@@H]2O[C@@H](CO)[C@H](O)[C@@H](O)[C@@H]2NC)[C@@H](N/C(N)=N\[H])[C@@H]1O [Streptomycin, reference compound]
- MIC (S. aureus ATCC 25923): 21.5 µM (≈ 12.5 µg/mL)
- MIC (P. aeruginosa ATCC 27853 [1]; [9]): 21.5 µM (≈ 12.5 µg/mL)
- MIC (E. coli ATCC 25922 [2]; Escherichia coli, ATCC25922): 21.5 µM (≈ 12.5 µg/mL)

Compound: CN[C@H](CC(C)C)C(=O)N[C@H]1C(=O)N[C@@H](CC(N)=O)C(=O)N[C@H]2C(=O)N[C@H]3C(=O)N[C@H](C(=O)N[C@H](C(=O)O)c4cc(O)cc(O)c4-c4cc3ccc4O)[C@H](O)c3ccc(c(Cl)c3)Oc3cc2cc(c3O[C@@H]2O[C@H](CO)[C@@H](O)[C@H](O)[C@H]2O[C@H]2C[C@](C)(N)[C@H](O)[C@H](C)O2)Oc2ccc(cc2Cl)[C@H]1O [Vancomycin, reference compound]
- MIC (MRSA ATCC 43300): 0.7 µM (≈ 1.01 µg/mL)

Compound: C[C@H]1c2cccc(O)c2C(=O)C2=C(O)[C@]3(O)C(=O)C(C(N)=O)=C(O)[C@@H](N(C)C)[C@@H]3[C@@H](O)[C@@H]21 [doxycycline, reference compound]
- MIC (P. aeruginosa ATCC 27853 [1]; [9]): 90 µM (≈ 40 µg/mL)

Compound: CC/C(=C(\c1ccccc1)c1ccc(OCCN(C)C)cc1)c1ccccc1 [tamoxifen, reference compound]
- IC50 at 20 h [5]: 24 µM

Compound: Colistin [reference compound]
- MIC (P. aeruginosa ATCC 27853 [1]): 1 µM
- MIC (E. coli ATCC 25922 [2]): 2 µM
- MIC (A. baumannii ATCC 19606; top dose 32 µg/mL): 0.2 µM
- MIC Kp [6]: 0.2 µM

Continued, in another order:

- MIC (S. aureus ATCC 25923): 124 µM (≈ 71.5 µg/mL)
- MIC (MRSA ATCC 43300; [8]): > 40 µM
- MIC (P. aeruginosa ATCC 27853 [1]; [9]): > 248 µM
- MIC (E. coli ATCC 25922 [2]; Escherichia coli, ATCC25922): 248 µM (≈ 143 µg/mL)
- MIC (A. baumannii ATCC 19606; [10]): > 40 µM
- MIC (C. albicans ATCC 90028): > 40 µM
- Dox/Pa fold-change (intrinsic MIC / combination MIC) (P. aeruginosa ATCC 27853 [3]): 1 fold
- Dox/Pa: concentration required to restore doxycycline activity (combination MIC) (P. aeruginosa ATCC 27853 [3]): > 248 µM
- Erythro/Ec fold-change (intrinsic MIC / combination MIC) (E. coli ATCC 25922 [4]): 1 fold
- Erythro/Ec: concentration required to restore erythromycin activity (combination MIC) (E. coli ATCC 25922 [4]): > 248 µM
- MIC Kp [6]: >40 µM
Compound: COc1cccc2c(C(=O)NCCCNCCCCCCNCCCNC(=O)c3c[nH]c4c(OC)cccc34)c[nH]c12 [Compound 17b]
- IC50 at 20 h [5]: > 40 µM
- Hemolysis HC10 (human red blood cells): >40 µM

- MIC (S. aureus ATCC 25923): > 269 µM
- MIC (MRSA ATCC 43300; [8]): 21.5 µM (≈ 11.1 µg/mL)
- MIC (P. aeruginosa ATCC 27853 [1]; [9]): 269 µM (≈ 139 µg/mL)
- MIC (E. coli ATCC 25922 [2]; Escherichia coli, ATCC25922): > 269 µM
- MIC (A. baumannii ATCC 19606; [10]): > 43 µM
- MIC (C. albicans ATCC 90028): > 43 µM
- Dox/Pa fold-change (intrinsic MIC / combination MIC) (P. aeruginosa ATCC 27853 [3]): 1 fold
- Dox/Pa: concentration required to restore doxycycline activity (combination MIC) (P. aeruginosa ATCC 27853 [3]): 269 µM
- Erythro/Ec fold-change (intrinsic MIC / combination MIC) (E. coli ATCC 25922 [4]): 1 fold
- Erythro/Ec: concentration required to restore erythromycin activity (combination MIC) (E. coli ATCC 25922 [4]): > 269 µM
- MIC Kp [6]: >43 µM
Compound: Cc1cccc2c(C(=O)NCCCNCCCCNCCCNC(=O)c3c[nH]c4c(C)cccc34)c[nH]c12 [Compound 18a]
- IC50 at 20 h [5]: > 43 µM
- Hemolysis HC10 (human red blood cells): >43 µM

- MIC (E. coli ATCC 25922 [2]; Escherichia coli, ATCC25922): 174 µM (≈ 128 µg/mL)
Compound: CC[C@H]1OC(=O)[C@H](C)[C@@H](O[C@H]2C[C@@](C)(OC)[C@@H](O)[C@H](C)O2)[C@H](C)[C@@H](O[C@@H]2O[C@H](C)C[C@H](N(C)C)[C@H]2O)[C@](C)(O)C[C@@H](C)C(=O)[C@H](C)[C@@H](O)[C@]1(C)O [erythromycin, reference compound]
